Data published in PubChem BioAssay (NCI).
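The compound was tested at five concentrations on cells cultured in 96-well plates, with a 48-hour exposure period. GI50 = concentration required for 50% inhibition of growth. TGI denotes the concentration required for complete inhibition of growth.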

Legend:
Experiment in all cases: NCI tumour cell line growth inhibition, 48 h
NCI-H226 lung = system: NCI-H226 lung
UACC-257 melanoma = system: UACC-257 melanoma
HCC-2998 colon = system: HCC-2998 colon
HCT-116 colon = system: HCT-116 colon
TK-10 renal = system: TK-10 renal
NCI-H460 lung = system: NCI-H460 lung
RPMI-8226 leukemia = system: RPMI-8226 leukemia
786-0 renal = system: 786-0 renal
MOLT-4 leukemia = system: MOLT-4 leukemia
LOX IMVI melanoma = system: LOX IMVI melanoma
SK-MEL-28 melanoma = system: SK-MEL-28 melanoma
OVCAR-8 ovarian = system: OVCAR-8 ovarian
DU-145 prostate = system: DU-145 prostate
ACHN renal = system: ACHN renal
K-562 leukemia = system: K-562 leukemia
HL-60(TB) leukemia = system: HL-60(TB) leukemia
SK-OV-3 ovarian = system: SK-OV-3 ovarian
MCF7 breast = system: MCF7 breast
CCRF-CEM leukemia = system: CCRF-CEM leukemia
MALME-3M melanoma = system: MALME-3M melanoma
A549 NSCLC = system: A549 NSCLC
NCI/ADR-RES ovarian = system: NCI/ADR-RES ovarian
EKVX NSCLC = system: EKVX NSCLC
OVCAR-3 ovarian = system: OVCAR-3 ovarian
PC-3 prostate = system: PC-3 prostate
IGROV1 ovarian = system: IGROV1 ovarian
HCT-15 colon = system: HCT-15 colon
SF-539 CNS = system: SF-539 CNS
HS 578T breast = system: HS 578T breast
UACC-62 melanoma = system: UACC-62 melanoma
OVCAR-5 ovarian = system: OVCAR-5 ovarian
HOP-62 NSCLC = system: HOP-62 NSCLC
SK-MEL-5 melanoma = system: SK-MEL-5 melanoma
KM12 colon = system: KM12 colon
SF-268 CNS = system: SF-268 CNS
U251 CNS = system: U251 CNS
SN12C renal = system: SN12C renal
T-47D breast = system: T-47D breast
NCI-H522 lung = system: NCI-H522 lung
SW-620 colon = system: SW-620 colon
COLO 205 colon = system: COLO 205 colon
UO-31 renal = system: UO-31 renal
OVCAR-4 ovarian = system: OVCAR-4 ovarian
CAKI-1 renal = system: CAKI-1 renal
NCI-H23 lung = system: NCI-H23 lung
SK-MEL-2 melanoma = system: SK-MEL-2 melanoma
M14 melanoma = system: M14 melanoma
HOP-92 NSCLC = system: HOP-92 NSCLC
MDA-MB-435 = system: MDA-MB-435
SR leukemia = system: SR leukemia
HT29 colon = system: HT29 colon
A498 renal = system: A498 renal
RXF 393 renal = system: RXF 393 renal
BT-549 breast = system: BT-549 breast
SNB-19 CNS = system: SNB-19 CNS
MDA-MB-231 breast = system: MDA-MB-231 breast
SNB-75 CNS = system: SNB-75 CNS

`CN(C)CCCn1c2nc(=O)[nH]c(=O)c-2nc2cc(Cl)c(Cl)cc21` gave a GI50 (NCI-H226 lung) of 2.58 µM, a TGI (NCI-H226 lung) of 9.28 µM and a GI50 (UACC-257 melanoma) of 2.23 µM. The TGI (UACC-257 melanoma) was 5.66 µM, the GI50 (HCC-2998 colon) was 12.5 µM and the TGI (HCC-2998 colon) was 27.9 µM. For the same compound, the GI50 (HCT-116 colon) was 0.418 µM, the TGI (HCT-116 colon) was 6.71 µM and the GI50 (TK-10 renal) was 4.62 µM. The TGI (TK-10 renal) was 14.1 µM, the GI50 (NCI-H460 lung) was 14.5 µM and the TGI (NCI-H460 lung) was greater than 100 µM. For the same compound, the GI50 (RPMI-8226 leukemia) was 3.25 µM, the TGI (RPMI-8226 leukemia) was 12.9 µM and the GI50 (786-0 renal) was 8.79 µM. The TGI (786-0 renal) was 23.2 µM, the GI50 (MOLT-4 leukemia) was 4.35 µM and the TGI (MOLT-4 leukemia) was 22.8 µM. The GI50 (LOX IMVI melanoma) was 2.37 µM, the TGI (LOX IMVI melanoma) was 7.36 µM and the GI50 (SK-MEL-28 melanoma) was 18.9 µM. It also gave a TGI (SK-MEL-28 melanoma) of 34 µM, a GI50 (OVCAR-8 ovarian) of 3.16 µM and a TGI (OVCAR-8 ovarian) of 10.6 µM. For the same compound, the GI50 (DU-145 prostate) was 16.4 µM, the TGI (DU-145 prostate) was 30 µM and the GI50 (ACHN renal) was 3.46 µM. The TGI (ACHN renal) was 11.8 µM, the GI50 (K-562 leukemia) was 3.43 µM and the TGI (K-562 leukemia) was 15.3 µM. The GI50 (HL-60(TB) leukemia) was 3.83 µM, the TGI (HL-60(TB) leukemia) was 9.97 µM and the GI50 (SK-OV-3 ovarian) was 22.3 µM. For the same compound, the TGI (SK-OV-3 ovarian) was 65.6 µM, the GI50 (MCF7 breast) was 0.398 µM and the TGI (MCF7 breast) was 1.64 µM. The GI50 (CCRF-CEM leukemia) was 3.81 µM, the TGI (CCRF-CEM leukemia) was 18.7 µM and the GI50 (MALME-3M melanoma) was 9.28 µM. For the same compound, the TGI (MALME-3M melanoma) was 26.8 µM, the GI50 (A549 NSCLC) was 4.02 µM and the TGI (A549 NSCLC) was 16.3 µM. For the same compound, the GI50 (NCI/ADR-RES ovarian) was 7.9 µM, the TGI (NCI/ADR-RES ovarian) was greater than 100 µM and the GI50 (EKVX NSCLC) was 13.8 µM. It also gave a TGI (EKVX NSCLC) of 28.5 µM, a GI50 (OVCAR-3 ovarian) of 0.812 µM and a TGI (OVCAR-3 ovarian) of 6.13 µM. It also gave a GI50 (PC-3 prostate) of 2.67 µM, a TGI (PC-3 prostate) of 8.8 µM and a GI50 (IGROV1 ovarian) of 4.65 µM. It also gave a TGI (IGROV1 ovarian) of 13.9 µM, a GI50 (HCT-15 colon) of 4.03 µM and a TGI (HCT-15 colon) of 21.5 µM. It also gave a GI50 (SF-539 CNS) of 3.24 µM, a TGI (SF-539 CNS) of 12.2 µM and a GI50 (HS 578T breast) of 30.9 µM. The TGI (HS 578T breast) was greater than 100 µM, the GI50 (UACC-62 melanoma) was 4.22 µM and the TGI (UACC-62 melanoma) was 14.9 µM. The GI50 (OVCAR-5 ovarian) was 14.2 µM, the TGI (OVCAR-5 ovarian) was 30.4 µM and the GI50 (HOP-62 NSCLC) was 4.14 µM. It also gave a TGI (HOP-62 NSCLC) of 15.9 µM, a GI50 (SK-MEL-5 melanoma) of 1.65 µM and a TGI (SK-MEL-5 melanoma) of 3.12 µM. It also gave a GI50 (KM12 colon) of 8.2 µM, a TGI (KM12 colon) of 26 µM and a GI50 (SF-268 CNS) of 5.31 µM. It also gave a TGI (SF-268 CNS) of 17.6 µM, a GI50 (U251 CNS) of 3.08 µM and a TGI (U251 CNS) of 10.5 µM. The GI50 (SN12C renal) was 3.09 µM, the TGI (SN12C renal) was 10.1 µM and the GI50 (T-47D breast) was 1.76 µM. For the same compound, the TGI (T-47D breast) was 5.86 µM, the GI50 (NCI-H522 lung) was 2.1 µM and the TGI (NCI-H522 lung) was 4.23 µM. The GI50 (SW-620 colon) was 2.58 µM, the TGI (SW-620 colon) was 11.7 µM and the GI50 (COLO 205 colon) was 1.35 µM. The TGI (COLO 205 colon) was 2.83 µM, the GI50 (UO-31 renal) was 2.73 µM and the TGI (UO-31 renal) was 10.9 µM. It also gave a GI50 (OVCAR-4 ovarian) of 6.3 µM, a TGI (OVCAR-4 ovarian) of 18.8 µM and a GI50 (CAKI-1 renal) of 1.83 µM. For the same compound, the TGI (CAKI-1 renal) was 4.66 µM, the GI50 (NCI-H23 lung) was 8.04 µM and the TGI (NCI-H23 lung) was 23.5 µM. It also gave a GI50 (SK-MEL-2 melanoma) of 4.81 µM, a TGI (SK-MEL-2 melanoma) of 16.1 µM and a GI50 (M14 melanoma) of 3.68 µM. For the same compound, the TGI (M14 melanoma) was 13 µM, the GI50 (HOP-92 NSCLC) was 12.2 µM and the TGI (HOP-92 NSCLC) was 25.8 µM. The GI50 (MDA-MB-435) was 2.14 µM, the TGI (MDA-MB-435) was 5.2 µM and the GI50 (SR leukemia) was 6.61 µM. For the same compound, the TGI (SR leukemia) was 30.5 µM, the GI50 (HT29 colon) was 2.13 µM and the TGI (HT29 colon) was 11.9 µM. For the same compound, the GI50 (A498 renal) was 16.1 µM, the TGI (A498 renal) was 30.4 µM and the GI50 (RXF 393 renal) was 13.2 µM. The TGI (RXF 393 renal) was 26.3 µM, the GI50 (BT-549 breast) was 19.5 µM and the TGI (BT-549 breast) was 34.7 µM. It also gave a GI50 (SNB-19 CNS) of 12.7 µM, a TGI (SNB-19 CNS) of 26 µM and a GI50 (MDA-MB-231 breast) of 3.88 µM. The TGI (MDA-MB-231 breast) was 14.9 µM, the GI50 (SNB-75 CNS) was 18 µM and the TGI (SNB-75 CNS) was 32.5 µM.
